Reference: ChEMBL document CHEMBL1201862, “PubChem BioAssay data set” (2004)
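96-well plates; 48 h exposure; 5 concentrations. Endpoints by linear interpolation between flanking doses. Not reached: highest tested concentration assigned. GI50 = concentration required for 50% inhibition of growth.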 Activity calls are given as the source filed them. Rule as the data show it: active = GI50 up to about 1.1 µM and inactive = higher.

Legend:
Assay in all cases: inhibition of tumour cell growth, NCI panel, 48 h
A498 = test system: A498
HOP-62 = test system: HOP-62
Malme-3M = test system: Malme-3M
SK-OV-3 = test system: SK-OV-3
ACHN = test system: ACHN
NCI-H226 = test system: NCI-H226
SF-268 = test system: SF-268
MDA-MB-231 = test system: MDA-MB-231
NCI-H522 = test system: NCI-H522
NCI-H23 = test system: NCI-H23
MDA-N = test system: MDA-N
SW-620 = test system: SW-620
TK-10 = test system: TK-10
COLO 205 = test system: COLO 205
SK-MEL-5 = test system: SK-MEL-5
OVCAR-8 = test system: OVCAR-8
M14 = test system: M14
OVCAR-4 = test system: OVCAR-4
786-0 = test system: 786-0
RXF 393 = test system: RXF 393
OVCAR-5 = test system: OVCAR-5
A549 = test system: A549
KM12 = test system: KM12
HCT-116 = test system: HCT-116
LOX IMVI = test system: LOX IMVI
HL-60 = test system: HL-60
Hs-578T = test system: Hs-578T
SNB-19 = test system: SNB-19
SNB-75 = test system: SNB-75
HT-29 = test system: HT-29
UO-31 = test system: UO-31
IGROV-1 = test system: IGROV-1
HOP-92 = test system: HOP-92
CAKI-1 = test system: CAKI-1
SR = test system: SR
SK-MEL-2 = test system: SK-MEL-2
BT-549 = test system: BT-549
NCI-H460 = test system: NCI-H460
MCF7 = test system: MCF7
NCI/ADR-RES = test system: NCI/ADR-RES
U-251 = test system: U-251
UACC-257 = test system: UACC-257
HCT-15 = test system: HCT-15
CCRF-CEM = test system: CCRF-CEM
UACC-62 = test system: UACC-62
SK-MEL-28 = test system: SK-MEL-28
K562 = test system: K562
T47D = test system: T47D
SF-295 = test system: SF-295
PC-3 = test system: PC-3
SN12C = test system: SN12C
MDA-MB-435 = test system: MDA-MB-435
OVCAR-3 = test system: OVCAR-3
RPMI-8226 = test system: RPMI-8226
EKVX = test system: EKVX
DU-145 = test system: DU-145
MOLT-4 = test system: MOLT-4
SF-539 = test system: SF-539

Measured: GI50

NCCNc1ncnc2ccc(Cl)cc12
> 100 µM: HCT-15
inactive: A498 37.9 µM | HOP-62 > 100 µM | Malme-3M > 100 µM | SK-OV-3 > 100 µM | ACHN 66.4 µM | NCI-H226 > 100 µM | SF-268 81.1 µM | MDA-MB-231 93.1 µM | NCI-H522 57.7 µM | NCI-H23 > 100 µM | MDA-N 99.1 µM | SW-620 72.3 µM | TK-10 28.6 µM | COLO 205 49.3 µM | SK-MEL-5 > 100 µM | OVCAR-8 74.1 µM | M14 > 100 µM | OVCAR-4 > 100 µM | 786-0 > 100 µM | RXF 393 > 100 µM | OVCAR-5 > 100 µM | A549 93.8 µM | KM12 > 100 µM | HCT-116 67.8 µM | LOX IMVI > 100 µM | HL-60 > 100 µM | Hs-578T > 100 µM | SNB-19 > 100 µM | SNB-75 97.5 µM | HT-29 66.8 µM | UO-31 97.3 µM | IGROV-1 49.9 µM | HOP-92 93.5 µM | CAKI-1 > 100 µM | SR 45.7 µM | SK-MEL-2 > 100 µM | BT-549 > 100 µM | NCI-H460 32.8 µM | MCF7 96.8 µM | NCI/ADR-RES > 100 µM | U-251 > 100 µM | UACC-257 36 µM | CCRF-CEM > 100 µM | UACC-62 93.5 µM | SK-MEL-28 > 100 µM | K562 > 100 µM | T47D > 100 µM | SF-295 > 100 µM | PC-3 75.5 µM | SN12C 88.5 µM | MDA-MB-435 > 100 µM | OVCAR-3 > 100 µM | RPMI-8226 96.2 µM | EKVX > 100 µM | DU-145 > 100 µM

CCCC1C(=O)Nc2cccc3ncn(c23)C1=O (configuration not stated)
> 100 µM: HCT-15
inactive: A498 > 100 µM | HOP-62 > 100 µM | Malme-3M > 100 µM | SK-OV-3 > 100 µM | ACHN > 100 µM | NCI-H226 > 100 µM | SF-268 > 100 µM | MDA-MB-231 > 100 µM | NCI-H23 > 100 µM | MDA-N > 100 µM | SW-620 > 100 µM | COLO 205 > 100 µM | SK-MEL-5 > 100 µM | OVCAR-8 > 100 µM | M14 > 100 µM | OVCAR-4 > 100 µM | 786-0 > 100 µM | RXF 393 > 100 µM | OVCAR-5 > 100 µM | A549 > 100 µM | KM12 > 100 µM | HCT-116 > 100 µM | HL-60 > 100 µM | Hs-578T > 100 µM | MOLT-4 > 100 µM | SF-539 > 100 µM | SNB-19 > 100 µM | SNB-75 28.8 µM | HT-29 > 100 µM | UO-31 > 100 µM | IGROV-1 > 100 µM | HOP-92 > 100 µM | CAKI-1 > 100 µM | SR > 100 µM | SK-MEL-2 > 100 µM | BT-549 > 100 µM | NCI-H460 > 100 µM | MCF7 > 100 µM | NCI/ADR-RES > 100 µM | U-251 > 100 µM | UACC-257 > 100 µM | CCRF-CEM > 100 µM | UACC-62 > 100 µM | SK-MEL-28 > 100 µM | K562 > 100 µM | T47D > 100 µM | SF-295 > 100 µM | PC-3 > 100 µM | SN12C > 100 µM | MDA-MB-435 > 100 µM | OVCAR-3 > 100 µM | RPMI-8226 > 100 µM | EKVX > 100 µM | DU-145 > 100 µM

CN(C)S(=O)(=O)c1ccc(Nc2ccc(O)c3c2C(=O)c2c([N+](=O)[O-])ccc(O)c2C3=O)cc1
inactive: A498 > 100 µM | HOP-62 > 100 µM | Malme-3M 57.4 µM | SK-OV-3 > 100 µM | ACHN 55 µM | SF-268 > 100 µM | MDA-MB-231 91.2 µM | NCI-H522 52.8 µM | NCI-H23 > 100 µM | MDA-N > 100 µM | SW-620 92.3 µM | TK-10 56.4 µM | COLO 205 65.8 µM | SK-MEL-5 72.3 µM | OVCAR-8 > 100 µM | M14 > 100 µM | OVCAR-4 > 100 µM | 786-0 > 100 µM | RXF 393 > 100 µM | OVCAR-5 > 100 µM | A549 > 100 µM | KM12 > 100 µM | HCT-116 72.9 µM | LOX IMVI 64.7 µM | HL-60 > 100 µM | Hs-578T > 100 µM | MOLT-4 35.5 µM | SNB-19 > 100 µM | SNB-75 > 100 µM | HT-29 > 100 µM | UO-31 > 100 µM | IGROV-1 > 100 µM | HOP-92 > 100 µM | CAKI-1 > 100 µM | SR 54.2 µM | SK-MEL-2 > 100 µM | BT-549 > 100 µM | NCI-H460 > 100 µM | MCF7 > 100 µM | NCI/ADR-RES > 100 µM | U-251 > 100 µM | UACC-257 > 100 µM | CCRF-CEM 4.39 µM | UACC-62 > 100 µM | SK-MEL-28 > 100 µM | K562 > 100 µM | T47D > 100 µM | SF-295 > 100 µM | PC-3 > 100 µM | SN12C > 100 µM | MDA-MB-435 > 100 µM | OVCAR-3 > 100 µM | RPMI-8226 > 100 µM | EKVX > 100 µM | DU-145 > 100 µM
> 100 µM: HCT-15
